Where “and” joins values, the source holds several entries; their conditions need not be identical. Equal entries are not always repeated. Entries after “also recorded” stand apart in the source; their conditions may differ. Where two headings read alike, the source gives them in different places.
Key:
[1] = biological target: T1, E. coli dihydrofolate reductase (ecDHFR) (Escherichia coli, UniProt P0ABQ4); format: binding; conditions: 0.1 mM ecDHFR; for ILOE signals with metformin (co-binding): 5 mM of each ligand (Fenbufen 2 mM), pH 6.8, 25 °C
T1 sequence (P0ABQ4 1-159): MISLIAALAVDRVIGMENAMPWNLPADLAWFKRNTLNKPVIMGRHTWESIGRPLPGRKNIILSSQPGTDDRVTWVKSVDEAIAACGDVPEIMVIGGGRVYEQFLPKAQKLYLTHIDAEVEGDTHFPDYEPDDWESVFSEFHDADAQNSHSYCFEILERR

[2] = biological target: T1, E. coli dihydrofolate reductase (ecDHFR)
[3] = biological target: T1, E. coli dihydrofolate reductase (ecDHFR); experiment: biochemical; conditions: NMR
[4] = biological target: T1, E. coli dihydrofolate reductase (ecDHFR); experiment: Isothermal titration calorimetry; format: binding
[5] = biological target: T1, E. coli dihydrofolate reductase (ecDHFR); experiment: Steady state kinetics of ecDHFR inhibition; format: biochemical; conditions: for α value (cooperative inhibition by MFM and pABG): Dixon plots, DHF 7.5 μM, α > 1 = negative cooperativity; for Ki: 30 °C, pH 7.0; for mode of inhibition: versus DHF, Lineweaver-Burk plot
[6] = biological target: L. casei DHFR; conditions: cited from earlier work
[7] = Ki, Lineweaver-Burk slope vs inhibitor concentration, NADPH 70 μM

In the case of `Cc1cc(C(=O)CCC(=O)O)c(C)c(C)c1C` [2,3,4,5-tetramethyl, 3-(2,3,4,5-tetramethylbenozyl)propionate], the “ILOE signals with metformin (co-binding)” value [1] is reported as “stronger ILOE signals”.
With `COc1ccc(C(=O)NCC(=O)O)cc1OC` [3,4-Dimethoxyhippurate, 3,4-dimethoxyhippurate] the “ILOE signals with metformin (co-binding)” value [1] was “weak ILOE cross peaks”.
In the case of `CC(C)c1ccc(C(=O)CCC(=O)O)cc1` [4-isopropyl, 3-(4-isopropylbenozyl)propionate], the “ILOE signals with metformin (co-binding)” value [1] is reported as “stronger ILOE signals”.
For `Cc1ccc(C(=O)NCC(=O)O)cc1` [4-methylhippurate], the “ILOE signals with metformin (co-binding)” value [1] was “ILOE signals were obtained”.
Work on `Cc1ccc(C(=O)CCC(=O)O)c(C)c1` [DMBP, 3-(2,4-dimethylbenzoyl)propionate] yielded a Kd ([2]; NMR serial titration, no other ligand) of 5.4 mM.
For `O=C(O)c1cc(-c2ccc(F)cc2F)ccc1O` [Diflunisal], the “transferred NOE signals” value ([1]; screening buffer, 25 °C) was “transferred NOE signals consistent with binding”.
With `CN(C)C(=N)N=C(N)N` [Metformin] the Kd ([3]; Ile5 resonance, no other ligand, pH 7.2 in D2O) was 14.8 mM and 15.9 mM, the Kd ([3]; Ile50, 75 mM DMBP present) was 7 ± 0.16 mM and the Kd ([3]; Ile50′ (MFM-sensitive resonance), 50 mM pABG present) was 6.89 ± 0.56 mM. It also gave a Kd ([3]; Ile50′, 50 mM pABG and 2 mM NADP+ present) of 5.27 ± 0.71 mM, a Kd ([3]; Ile61′ (MFM-sensitive resonance), 50 mM pABG present) of 5.36 ± 1.15 mM and a ΔH ([4]; ITC competitive displacement by DHF, NADP+ present, initial fit with variable ΔH) of -1.1 ± 3.2 kcal/mol. For the same molecule, the Kd ([4]; mean Kd, stated as mean of NMR and ITC displacement studies) was 17.9 mM, the “α value (cooperative inhibition by MFM and pABG)” value ([5]; NADPH 70 μM) was 3.3 ± 1.3 and the Ki [5, 7] was 24 ± 7 mM. The Ki ([5]; Ki, non-linear global fit of all the data (SAS), NADPH) was 17.9 mM, the mode of inhibition ([5]; listed as MFM) was “competitive binding; also recorded: competitive inhibition” and the “affinity relative to DAP (fold weaker)” value ([2]; ecDHFR affinity for MFM versus DAP) was ~ 20 fold.
With `[H]/N=C(/N)N/C(=N/[H])NCCc1ccccc1` [Phenformin, phenformin] the Kd ([4]; Kd, ITC direct titration, cofactor NADP+, pH 7.0, 25° C) was 0.188 ± 0.018 mM, the Kd ([4]; Kd, ITC direct titration, cofactor NADPH, pH 7.0, 25° C) was 0.098 ± 0.007 mM and the Kd ([4]; Kd, ITC direct titration, no cofactor, pH 7.0, 25° C) was 0.716 ± 0.045 mM. The Ki [5, 7] was 0.17 ± 0.02 mM, the “inhibition constant relative to metformin (fold lower)” value ([5]; phenformin Ki versus metformin Ki) was 100 fold and the mode of inhibition [5] was “competitive inhibition”.
In the case of `O=C(O)CNC(=O)c1ccccc1` [hippurate, N-benzoylglycine], the “ILOE signals with metformin (co-binding)” value [1] is reported as “neither transferred NOE nor ILOE MFM-hippurate cross peaks were observed”.
For `Nc1ccc(C(=O)N[C@@H](CCC(=O)O)C(=O)O)cc1` [pABG, p-aminobenzoyl-L-glutamate], the “Kd ratio in the absence and presence of NADPH” value [6] is listed as 4.5, the “α value (cooperative inhibition by MFM and pABG)” value ([5]; NADPH 70 μM) is listed as 3.3 ± 1.3 and the Kd/Ki ratio ([5]; Kd (NMR, no cofactor) over Ki (NADPH present)) is listed as 4.4. For the same molecule, the Ki ([5]; Lineweaver-Burk slope vs inhibitor concentration, NADPH 70 μM) was 1.8 ± 0.3 mM, the Ki ([5]; non-linear global fit of all the data (SAS), NADPH) was 1.3 ± 0.2 mM and the Kd ([2]; NMR, Ile50 resonance, no other ligand, pH 7.2 in D2O) was 7.64 ± 0.53 mM. For the same molecule, the Kd ([2]; NMR, Ile61 resonance, no other ligand, pH 7.2 in D2O) was 8.09 ± 0.52 mM, the Kd ([2]; NMR, Ile94 resonance, no other ligand, pH 7.2 in D2O) was 8 ± 0.37 mM and the Kd ([2]; read-out: Kd (mean), mean of NMR values from Ile50, Ile61, Ile94) was 7.9 mM and 7.91 mM. The “ILOE signals with metformin (co-binding)” value [1] was “ILOE signals connecting the MFM methyl resonances with the pABG aromatic resonances were present”.

Reference: paper PMC5740485 (Biochemistry, 2017)
